Reference: patent US20240101546A1, “HETEROARYL-ACETYLENES, PHARMACEUTICAL COMPOSITIONS THEREOF, AND THEIR THERAPEUTIC APPLICATIONS” (Eubulus Biotherapeutics Inc., priority 2020, published 2024)

Tested on: lung cancer cell line NCI-H82
Assay: Cell proliferation assay, NCI-H82 (CELL-TITER GLO)
Assay type: cell-based
Conditions: Homo sapiens, NCI-H82, 72 h, NCI-H82 cells, 72 h incubation, cell viability by CELL-TITER GLO, top concentration 1 μM; read-out: EC50, Inhibition of NCl-H82 Cell Proliferation
Protocol: The activity of a compound was determined in a cell proliferation assay using the lung cancer cell line NCI-H82. Cells (1,000 cells per well) were cultured with RPMI1640 in a 384-well tissue culture plate. After incubated overnight, the compound was added at predetermined concentrations, starting with 1 μM and followed by a 3-fold serial dilution. After the cells were incubated for 72 h, cell viability was determined using a CELL-TITER GLO assay. The CELL-TITER GLO reagent (25 μL) was added to each well and the luminescence was measured by a multimode microplate reader after a brief period of shaking. EC50 values were determined for the compound. The results are summarized in Table 1, wherein A represents a value no greater than 200 nM, B represents a value greater than 200 nM but no greater than 1 μM, C represents a value greater than 1 μM but no greater than […], and D represents a value greater than 5 μM.

Row | SMILES | EC50 [nM]
1 | C#Cc1nc(NC(=O)N[C@@H](CO)c2ccc(-c3cc(F)cnc3C3(C#N)CC3)cc2)cs1 [Compound A64, (R)-1-(1-(4-(2-(1-Cyanocyclopropyl)-5-fluoropyridin-3-yl)phenyl)-2-hydroxy-ethyl)-3-(2-ethynylthiazol-4-yl)urea] | ≤ 200
2 | C#Cc1nc(NC(=O)N[C@@H](CO)c2ccc(-c3cccc4ccnc(O)c34)cc2)cs1 [Compound A104, (R)-1-(2-Ethynylthiazol-4-yl)-3-(2-hydroxy-1-(4-(1-hydroxyisoquinolin-8-yl)-phenyl)ethyl)urea] | ≤ 200
3 | C#Cc1nc(NC(=O)N[C@@H](CO)c2ccc(-c3cccc(N4CCC(F)(F)C4)c3)cc2)cs1 [Compound A181, (R)-1-(1-(3′-(3,3-Difluoropyrrolidin-1-yl)-[1,1′-biphenyl]-4-yl)-2-hydroxyethyl)-3-(2-ethynylthiazol-4-yl)urea] | ≤ 200
4 | C#Cc1nc(NC(=O)N[C@@H](CO)c2ccc(-c3cccc4ncsc34)cc2)ns1 [Compound A122, (R)-1-(1-(4-(Benzo[d]thiazol-7-yl)phenyl)-2-hydroxyethyl)-3-(5-ethynyl-1,2,4-thiadiazol-3-yl)urea] | 200 to 1000
5 | C#Cc1nc(NC(=O)N[C@@H](COC(N)=O)c2ccc(-c3ccccc3C3(C#N)CC3)cn2)cs1 [Compound A60, (R)-2-(5-(2-(1-Cyanocyclopropyl)phenyl)pyridin-2-yl)-2-(3-(2-ethynylthiazol-4-yl)ureido)ethyl carbamate] | ≤ 200
6 | C#Cc1nc(NC(=O)NCc2ccc(N3CCC[C@H]3C#N)cc2)cs1 [Compound A32, (S)-1-(4-(2-Cyanopyrrolidin-1-yl)benzyl)-3-(2-ethynylthiazol-4-yl)urea] | ≤ 200
7 | C#Cc1nc(NC(=O)N[C@@H](CO)c2ccc(N3CCOCC3=O)cc2)cs1 [Compound A134, (R)-1-(2-Ethynylthiazol-4-yl)-3-(2-hydroxy-1-(4-(3-oxomorpholino)phenyl)-ethyl)urea] | 200 to 1000
8 | C#Cc1nc(NC(=O)N[C@@H](CO)c2ccc(C3CCCCC3)cc2)cs1 [Compound A182, (R)-1-(1-(4-Cyclohexylphenyl)-2-hydroxyethyl)-3-(2-ethynylthiazol-4-yl)urea] | ≤ 200
9 | C#Cc1nc(NC(=O)N[C@@H](CO)c2ccc(-c3cccc4ncnc(O)c34)cc2)cs1 [Compound A109, (R)-1-(2-Ethynylthiazol-4-yl)-3-(2-hydroxy-1-(4-(4-hydroxyquinazolin-5-yl)phenyl)ethyl)urea] | ≤ 200
10 | C#Cc1nc(NC(=O)N[C@@H](CO)c2ccc(C3=CCN(C)CC3)cc2)cs1 [Compound A185, (R)-1-(2-Ethynylthiazol-4-yl)-3-(2-hydroxy-1-(4-(1-methyl-1,2,3,6-tetrahydro-pyridin-4-yl)phenyl)ethyl)urea] | 200 to 1000
11 | C#Cc1nc(NC(=O)N[C@@H](CO)c2ccc(-c3cc(F)ccc3C3(C#N)CC3)cn2)cs1 [Compound A77, (R)-1-(1-(5-(2-(1-Cyanocyclopropyl)-5-fluorophenyl)pyridin-2-yl)-2-hydroxyethyl)-3-(2-ethynylthiazol-4-yl)urea] | ≤ 200
12 | C#Cc1cccc(NC(=O)N[C@@H](CO)c2ccc(-c3cccc(N4CCCC4)n3)cc2)n1 [Compound A124, (R)-1-(6-Ethynylpyridin-2-yl)-3-(2-hydroxy-1-(4-(6-(pyrrolidin-1-yl)pyridin-2-yl)phenyl)ethyl)urea] | 200 to 1000
13 | C#Cc1nc(NC(=O)N[C@@H](COC(N)=O)c2ccc(-c3cccc4ncsc34)cc2)cs1 [Compound A223, (R)-2-(4-(Benzo[d]thiazol-7-yl)phenyl)-2-(3-(2-ethynylthiazol-4-yl)ureido)ethyl carbamate] | ≤ 200
14 | C#Cc1nc(NC(=O)N[C@@H](CO)C(=O)N2CCN(c3ccccc3C#N)CC2)cs1 [Compound A149, (S)-1-(1-(4-(2-Cyanophenyl)piperazin-1-yl)-3-hydroxy-1-oxopropan-2-yl)-3-(2-ethynylthiazol-4-yl)urea] | ≤ 200
15 | C#Cc1nc(NC(=O)N(CCS(C)(=O)=O)Cc2ccc(-c3cccc4ncsc34)cc2)cs1 [Compound A207, 1-(4-(Benzo[d]thiazol-7-yl)benzyl)-3-(2-ethynylthiazol-4-yl)-1-(2-(methyl-sulfonyl)ethyl)urea] | ≤ 200
16 | C#Cc1nc(NC(=O)N[C@H](CO)c2ccc(-c3cccc4ncsc34)cc2)cs1 [Compound A41, (S)-1-(1-(4-(Benzo[d]thiazol-7-yl)phenyl)-2-hydroxyethyl)-3-(2-ethynylthiazol-4-yl)urea] | ≤ 200
17 | C#Cc1nc(NC(=O)N2CCN(c3ccc(-c4cccc5nc(N)sc45)cc3)CC2)cs1 [Compound B27, 4-(4-(2-Aminobenzo[d]thiazol-7-yl)phenyl)-N-(2-ethynylthiazol-4-yl)piperazine-1-carboxamide] | ≤ 200
18 | C#Cc1nc(NC(=O)N[C@@H](COC(=O)C(C)(C)C)c2ccc(-c3cccc4ncsc34)cc2)cs1 [Compound A202, (R)-2-(4-(Benzo[d]thiazol-7-yl)phenyl)-2-(3-(2-ethynylthiazol-4-yl)ureido)ethyl pivalate] | ≤ 200
19 | C#Cc1nc(NC(=O)N[C@@H](CO)c2ccc(N3CC(F)(F)C3)cc2)cs1 [Compound A126, (R)-1-(1-(4-(3,3-Difluoroazetidin-1-yl)phenyl)-2-hydroxyethyl)-3-(2-ethynyl-thiazol-4-yl)urea] | ≤ 200
20 | C#Cc1nc(NC(=O)NCC23CC4CC(CC(C4)C2)C3)cs1 [Compound A38, 1-(Adamantan-1-ylmethyl)-3-(2-ethynylthiazol-4-yl)urea] | ≤ 200
21 | C#Cc1nc(NC(=O)N2CCN(c3ccc(-c4cccc(N5CCCC5)c4)cc3)CC2)cs1 [Compound B15, N-(2-Ethynylthiazol-4-yl)-4-(3′-(pyrrolidin-1-yl)-[1,1′-biphenyl]-4-yl)piperazine-1-carboxamide] | ≤ 200
22 | C#Cc1nc(NC(=O)N[C@@H](CO)c2ccc(-c3cccc(N4CCC4)c3)cc2)cs1 [Compound A190, (R)-1-(1-(3′-(Azetidin-1-yl)-[1,1′-biphenyl]-4-yl)-2-hydroxyethyl)-3-(2-ethynyl-thiazol-4-yl)urea] | ≤ 200

Now from value to molecule:

Row | EC50 [nM] | SMILES
23 | ≤ 200 | C#Cc1ncc(NC(=O)N[C@@H](COC(N)=O)c2ccc(-c3cccc(N4CCCC4)n3)cn2)s1 [Compound A90, (R)-2-(3-(2-Ethynylthiazol-5-yl)ureido)-2-(6-(pyrrolidin-1-yl)-[2,3′-bipyridin]-6′-yl)ethyl carbamate]
24 | ≤ 200 | C#Cc1nc(NC(=O)NCC2CC=C(c3cccc(C4(C#N)CC4)c3)CC2)cs1 (stereo not shown) [Compound A239, 1-((3′-(1-Cyanocyclopropyl)-2,3,4,5-tetrahydro-[1,1′-biphenyl]-4-yl)methyl)-3-(2-ethynylthiazol-4-yl)urea]
25 | 200 to 1000 | C#Cc1nc(NC(=O)N[C@@H](CO)c2ccc(C3CCN(C)CC3)cc2)cs1 [Compound A184, (R)-1-(2-Ethynylthiazol-4-yl)-3-(2-hydroxy-1-(4-(1-methylpiperidin-4-yl)phenyl)-ethyl)urea]
26 | ≤ 200 | C#Cc1nc(NC(=O)N[C@@H](C(N)=O)c2ccc(-c3cccc4ncsc34)cc2)cs1 [Compound A210, (R)-2-(4-(Benzo[d]thiazol-7-yl)phenyl)-2-(3-(2-ethynylthiazol-4-yl)ureido)-acetamide]
27 | ≤ 200 | C#Cc1nc(NC(=O)N[C@H](C(=O)NC)c2ccc(-c3cccc4ncsc34)cc2)cs1 [Compound A216, (S)-2-(4-(Benzo[d]thiazol-7-yl)phenyl)-2-(3-(2-ethynylthiazol-4-yl)ureido)-N-methylacetamide]
28 | ≤ 200 | C#Cc1nc(NC(=O)N[C@@H](CO)c2ccc(-c3cccnc3C3(C#N)CC3)cc2)cs1 [Compound A62, (R)-1-(1-(4-(2-(1-Cyanocyclopropyl)pyridin-3-yl)phenyl)-2-hydroxyethyl)-3-(2-ethynylthiazol-4-yl)urea]
29 | ≤ 200 | C#Cc1nc(NC(=O)N[C@@H](CO)c2ccc(-c3cccc(N4CC(F)(F)C4)c3)cc2)cs1 [Compound A191, (R)-1-(1-(3′-(3,3-Difluoroazetidin-1-yl)-[1,1′-biphenyl]-4-yl)-2-hydroxyethyl)-3-(2-ethynylthiazol-4-yl)urea]
30 | ≤ 200 | C#Cc1nc(NC(=O)N2CCN(c3ccc(-c4cccc(N5CCCC5)c4)cn3)C[C@@H]2CO)cs1 [Compound B56, (R)—N-(2-Ethynylthiazol-4-yl)-2-(hydroxymethyl)-4-(5-(3-(pyrrolidin-1-yl)-phenyl)pyridin-2-yl)piperazine-1-carboxamide]
31 | ≤ 200 | C#Cc1nc(NC(=O)N[C@@H](CO)c2ccc(N3CCCCCC3=O)cc2)cs1 [Compound A138, (R)-1-(2-Ethynylthiazol-4-yl)-3-(2-hydroxy-1-(4-(2-oxoazepan-1-yl)phenyl)-ethyl)urea]
32 | ≤ 200 | C#Cc1nc(NC(=O)N[C@@H](CS(C)(=O)=O)c2ccc(-c3cccnc3C3(C#N)CC3)c(Cl)c2)cs1 [Compound A72, (R)-1-(1-(3-Chloro-4-(2-(1-cyanocyclopropyl)pyridin-3-yl)phenyl)-2-(methyl-sulfonyl)ethyl)-3-(2-ethynylthiazol-4-yl)urea]
33 | ≤ 200 | C#Cc1nc(NC(=O)NCc2ccc(N3CCCC3)cc2)cs1 [Compound A30, 1-(2-Ethynylthiazol-4-yl)-3-(4-(pyrrolidin-1-yl)benzyl)urea]
34 | ≤ 200 | C#Cc1nc(NC(=O)N[C@@H](CO)c2ccc(-c3cccnc3C3(C#N)CC3)c(F)c2)cs1 [Compound A68, (R)-1-(1-(4-(2-(1-Cyanocyclopropyl)pyridin-3-yl)-3-fluorophenyl)-2-hydroxy-ethyl)-3-(2-ethynylthiazol-4-yl)urea]
